Assay [1] is described as follows: inhibitors of firefly luciferase expression or activity, dose response, H4 neuroglioma cells, luminescence (AID 1990). It is filed as functional, cell-based.
Assay [2] can be described thus: Luminescence Cell-Based Dose Response HTS to Identify Inhibitors of 5'UTR Stem-Loop Driven Prion Protein mRNA Translation in H4 Neuroglioblastoma Cells. [Related pubchem assays: 1827 (Project Summary), 1813 (Primary HTS)]. It is filed as functional.
A short description of assay [3]: inhibitors of SNCA 5'UTR-driven reporter translation, confirmation, H4 neuroglioma cells, luminescence (AID 1988). Type of assay: functional, cell-based.
The target of assay [4] is T1, High affinity choline transporter 1 (Homo sapiens, UniProt Q9GZV3).
T1 sequence (Q9GZV3 whole entry): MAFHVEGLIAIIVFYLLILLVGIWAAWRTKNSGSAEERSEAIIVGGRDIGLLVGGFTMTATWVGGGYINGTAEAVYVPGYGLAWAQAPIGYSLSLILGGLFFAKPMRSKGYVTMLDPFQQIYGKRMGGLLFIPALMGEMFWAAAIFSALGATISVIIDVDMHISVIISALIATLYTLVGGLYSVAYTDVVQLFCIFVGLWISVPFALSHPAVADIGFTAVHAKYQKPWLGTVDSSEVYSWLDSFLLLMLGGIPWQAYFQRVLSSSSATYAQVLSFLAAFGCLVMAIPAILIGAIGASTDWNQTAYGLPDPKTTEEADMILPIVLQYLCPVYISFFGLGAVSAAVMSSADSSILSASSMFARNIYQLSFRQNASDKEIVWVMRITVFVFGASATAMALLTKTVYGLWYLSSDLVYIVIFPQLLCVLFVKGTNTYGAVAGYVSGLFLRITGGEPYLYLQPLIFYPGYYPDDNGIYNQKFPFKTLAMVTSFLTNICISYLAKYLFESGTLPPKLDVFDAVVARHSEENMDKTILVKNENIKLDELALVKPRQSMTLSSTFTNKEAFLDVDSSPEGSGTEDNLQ
In words: CHT inhibitors, dose response, cell-based, 5-point CRC, membrane potential dye (AID 504840). Type of assay: functional.

Assay [5] has as its target Luciferin 4-monooxygenase (Photinus pyralis, UniProt P08659). The experiment in a line: firefly luciferase enzyme inhibitors, dose response, biochemical, luminescence (AID 1891).
A short description of assay [6]: Luminescence Cell-Based Dose Confirmation HTS to Identify Inhibitors of Platelet Dense Granule Release. [Related pubchem assays: 1663 (Primary HTS), 1678 (Summary of Project)]. It is filed as functional.
Assay [7] has as its target Genome polyprotein (dengue virus type 2, UniProt P29990). The experiment in a line: Dengue-2 NS5 methyltransferase inhibitors, primary screen, biochemical, confirmation dose response (AID 588689). It is filed as functional.
Assay [8] addresses T2, Polyadenylate-binding protein 1 (Homo sapiens, UniProt P11940). The experiment in a line: PABP1 MLLE–PAM2 interaction inhibitors, dose response, miRNA deadenylation inhibitor project, biochemical, fluorescence polarization, Cy5-PAM2 peptide, secondary (AID 602260). As to conditions: read-out: IC50_Mean. It is filed as functional. A general note: Fluorescence polarisation rises when a labelled molecule tumbles more slowly, as on binding a larger partner.

Assay [9] has as its target T2, Polyadenylate-binding protein 1. In words: PABP1 MLLE–PAM2 binding inhibitor potency, dose response, biochemical, fluorescence polarization, FITC-PAM2 peptide (AID 602259). As to conditions: read-out: IC50_Mean. It is filed as functional.
The target of assay [10] is Nonstructural protein 1 (Influenza A virus, UniProt Q194T2). Type of assay: functional, Influenza A virus (A/California/07/2009(H1N1)).
Nonstructural protein 1, sequence (Q194T2 whole entry): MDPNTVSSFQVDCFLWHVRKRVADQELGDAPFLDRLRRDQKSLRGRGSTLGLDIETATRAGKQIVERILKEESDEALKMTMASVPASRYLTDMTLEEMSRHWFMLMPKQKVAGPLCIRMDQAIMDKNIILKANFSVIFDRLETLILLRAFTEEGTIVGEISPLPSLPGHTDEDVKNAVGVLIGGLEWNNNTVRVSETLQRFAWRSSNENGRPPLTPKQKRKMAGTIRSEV
Assay [11] can be described thus: Shn3 3'UTR reporter inhibitors, dose response, cell-based, Clone20 osteoblasts, firefly luciferase, cherry-picked (AID 624132).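 Note: firefly luciferase luminescence from reporter carrying the Shn3 3'UTR in osteoblasts.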 Type of assay: functional.
Assay [12] is described as follows: control 3'UTR Renilla luciferase suppression, dose response, counter-screen for Shn3 inhibitor project, cell-based, Clone20-Shn3RL, cherry-picked (AID 624133). It is filed as functional. A general note: The purpose of a counterscreen is to sort out artefacts and off-target activity.
Assay [13] can be described thus: growth suppression of PTEN-null colon cells, dose response, cell-based, HCT116 PTEN knockout (AID 1047).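 Note: HCT116 colon tumor cells with PTEN knocked out; cells exposed to compound for 60 hours before readout; potency for loss of cell viability measured by luminescence.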 It is filed as functional.
The nature of assay [14]: growth suppression of beta-catenin-knockout colon cells, dose response, cell-based, HCT116, human colon tumor (AID 1045).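 Note: HCT116 colon tumor cells with beta catenin knocked out; cells exposed to compound for 60 hours.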 Type of assay: functional.
A short description of assay [15]: inhibitors of HIV Env-driven cell fusion, dose response, cherry-pick (AID 652057). It is filed as functional, cell-based.
The nature of assay [16]: ZM109 Env clade C HIV-1 fusion inhibitors, dose response, HeLa effector, CEM target cells, luciferase, cherry-pick (AID 652058). Type of assay: functional, cell-based.
Assay [17] is described as follows: inhibitors of clade B AD8 Env fusion, dose response, cell-based, cherry-pick (AID 652062).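 Note: luciferase signal from cell-cell fusion driven by HIV-1 clade B AD8 Env; potency is for inhibitors of fusion seen as a drop in luminescence.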 It is filed as functional.
Assay [18] has as its target Large T antigen (Simian virus 40, UniProt P03070). Type of assay: functional, Betapolyomavirus macacae.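 Note: Confirmatory-stage PubChem screen for compounds that inhibit SV40 T antigen.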
Assay [19] addresses T3, Rac GTPase-activating protein 1 (Homo sapiens, UniProt Q9H0H5).
T3 sequence (Q9H0H5 whole entry): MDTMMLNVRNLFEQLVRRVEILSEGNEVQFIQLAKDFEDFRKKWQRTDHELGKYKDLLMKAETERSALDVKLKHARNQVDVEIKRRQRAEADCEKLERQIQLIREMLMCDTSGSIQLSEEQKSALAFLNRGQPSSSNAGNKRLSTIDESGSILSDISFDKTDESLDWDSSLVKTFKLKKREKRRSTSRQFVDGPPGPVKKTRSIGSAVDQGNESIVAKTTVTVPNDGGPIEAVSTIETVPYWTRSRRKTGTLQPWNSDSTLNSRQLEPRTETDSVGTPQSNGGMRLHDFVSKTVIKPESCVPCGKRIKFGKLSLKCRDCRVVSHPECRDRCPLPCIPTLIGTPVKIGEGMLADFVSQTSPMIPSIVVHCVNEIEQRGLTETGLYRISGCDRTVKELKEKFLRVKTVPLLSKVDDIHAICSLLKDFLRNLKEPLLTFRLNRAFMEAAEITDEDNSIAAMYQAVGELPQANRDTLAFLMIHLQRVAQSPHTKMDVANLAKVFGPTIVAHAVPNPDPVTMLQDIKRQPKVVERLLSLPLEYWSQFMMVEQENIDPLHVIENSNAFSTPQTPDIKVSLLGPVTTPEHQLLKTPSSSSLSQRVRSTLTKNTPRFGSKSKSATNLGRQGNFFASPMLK
The experiment in a line: MgcRacGAP GTPase-activating activity inhibitors, confirmation, biochemical, ADP Hunter fluorescence, primary and confirmatory (AID 624330). It is filed as functional.

Assay [20] is described as follows: P. falciparum Dd2 growth inhibitors, dose response, SYBR Green, cherry-picked samples (AID 1159567). It is filed as functional, cell-based.

Among the data in ChEMBL document CHEMBL1201862, “PubChem BioAssay data set” (2004) are EC50, IC50 and AC50 values, retold here.

The EC50 is the concentration at which the effect is half-maximal. In general, AC50 refers to the concentration giving half of the maximal activity seen.

Calls of active or inactive are those of the source.

T2 sequence (P11940 whole entry): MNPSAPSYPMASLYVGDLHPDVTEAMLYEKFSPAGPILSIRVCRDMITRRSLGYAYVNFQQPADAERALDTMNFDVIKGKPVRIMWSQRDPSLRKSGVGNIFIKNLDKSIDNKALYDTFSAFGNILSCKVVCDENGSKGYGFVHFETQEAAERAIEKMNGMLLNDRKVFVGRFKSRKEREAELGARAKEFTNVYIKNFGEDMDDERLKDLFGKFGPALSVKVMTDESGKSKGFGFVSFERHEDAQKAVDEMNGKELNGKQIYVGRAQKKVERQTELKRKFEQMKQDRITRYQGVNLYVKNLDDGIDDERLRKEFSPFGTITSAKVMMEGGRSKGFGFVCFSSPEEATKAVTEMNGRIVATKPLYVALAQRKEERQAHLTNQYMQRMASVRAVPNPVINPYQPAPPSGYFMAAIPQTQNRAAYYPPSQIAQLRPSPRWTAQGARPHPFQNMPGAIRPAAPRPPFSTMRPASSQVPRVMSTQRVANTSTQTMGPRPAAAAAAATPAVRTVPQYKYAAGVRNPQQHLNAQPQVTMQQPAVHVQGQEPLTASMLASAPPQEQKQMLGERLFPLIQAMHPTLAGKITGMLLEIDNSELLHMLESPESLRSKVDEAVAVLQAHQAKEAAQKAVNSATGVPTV
Luciferin 4-monooxygenase, sequence (P08659 whole entry): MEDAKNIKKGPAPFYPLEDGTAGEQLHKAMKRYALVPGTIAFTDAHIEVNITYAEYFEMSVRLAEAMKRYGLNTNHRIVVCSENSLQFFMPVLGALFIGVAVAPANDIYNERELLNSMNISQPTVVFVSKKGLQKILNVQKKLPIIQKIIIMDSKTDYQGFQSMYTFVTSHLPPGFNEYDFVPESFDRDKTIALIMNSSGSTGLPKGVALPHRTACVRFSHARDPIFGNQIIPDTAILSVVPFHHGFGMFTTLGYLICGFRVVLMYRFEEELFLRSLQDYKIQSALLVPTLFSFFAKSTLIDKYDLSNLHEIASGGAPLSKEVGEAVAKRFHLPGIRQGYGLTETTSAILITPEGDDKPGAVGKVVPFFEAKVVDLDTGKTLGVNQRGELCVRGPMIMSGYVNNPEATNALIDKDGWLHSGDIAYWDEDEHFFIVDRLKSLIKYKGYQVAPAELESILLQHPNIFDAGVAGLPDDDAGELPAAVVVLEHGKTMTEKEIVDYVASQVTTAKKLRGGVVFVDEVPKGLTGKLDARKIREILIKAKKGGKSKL
Genome polyprotein, sequence (P29990 2492-3391 limits assumed): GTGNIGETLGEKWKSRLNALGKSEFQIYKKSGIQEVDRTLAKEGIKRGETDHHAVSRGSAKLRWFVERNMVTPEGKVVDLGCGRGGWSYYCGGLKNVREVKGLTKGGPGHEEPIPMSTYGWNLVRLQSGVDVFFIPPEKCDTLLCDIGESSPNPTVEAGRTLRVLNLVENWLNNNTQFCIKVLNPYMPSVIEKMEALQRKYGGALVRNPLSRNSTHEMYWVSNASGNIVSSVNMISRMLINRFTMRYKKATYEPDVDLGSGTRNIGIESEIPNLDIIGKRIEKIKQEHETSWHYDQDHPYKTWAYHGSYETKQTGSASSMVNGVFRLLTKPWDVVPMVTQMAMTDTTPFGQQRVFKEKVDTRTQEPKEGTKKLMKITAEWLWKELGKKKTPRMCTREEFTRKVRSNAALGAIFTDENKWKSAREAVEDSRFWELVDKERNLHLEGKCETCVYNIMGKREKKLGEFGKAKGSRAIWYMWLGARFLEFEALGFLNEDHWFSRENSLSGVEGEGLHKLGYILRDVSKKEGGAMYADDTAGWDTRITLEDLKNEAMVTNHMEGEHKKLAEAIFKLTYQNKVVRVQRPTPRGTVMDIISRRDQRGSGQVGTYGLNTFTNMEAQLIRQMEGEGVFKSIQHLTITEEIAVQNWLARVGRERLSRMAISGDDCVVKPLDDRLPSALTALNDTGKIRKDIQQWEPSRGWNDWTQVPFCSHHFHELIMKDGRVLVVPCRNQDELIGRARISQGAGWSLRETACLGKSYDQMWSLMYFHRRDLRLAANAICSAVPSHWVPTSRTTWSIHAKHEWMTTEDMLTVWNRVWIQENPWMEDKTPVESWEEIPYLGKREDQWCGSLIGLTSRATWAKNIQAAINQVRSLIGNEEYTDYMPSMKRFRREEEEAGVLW
Large T antigen, sequence (P03070 whole entry): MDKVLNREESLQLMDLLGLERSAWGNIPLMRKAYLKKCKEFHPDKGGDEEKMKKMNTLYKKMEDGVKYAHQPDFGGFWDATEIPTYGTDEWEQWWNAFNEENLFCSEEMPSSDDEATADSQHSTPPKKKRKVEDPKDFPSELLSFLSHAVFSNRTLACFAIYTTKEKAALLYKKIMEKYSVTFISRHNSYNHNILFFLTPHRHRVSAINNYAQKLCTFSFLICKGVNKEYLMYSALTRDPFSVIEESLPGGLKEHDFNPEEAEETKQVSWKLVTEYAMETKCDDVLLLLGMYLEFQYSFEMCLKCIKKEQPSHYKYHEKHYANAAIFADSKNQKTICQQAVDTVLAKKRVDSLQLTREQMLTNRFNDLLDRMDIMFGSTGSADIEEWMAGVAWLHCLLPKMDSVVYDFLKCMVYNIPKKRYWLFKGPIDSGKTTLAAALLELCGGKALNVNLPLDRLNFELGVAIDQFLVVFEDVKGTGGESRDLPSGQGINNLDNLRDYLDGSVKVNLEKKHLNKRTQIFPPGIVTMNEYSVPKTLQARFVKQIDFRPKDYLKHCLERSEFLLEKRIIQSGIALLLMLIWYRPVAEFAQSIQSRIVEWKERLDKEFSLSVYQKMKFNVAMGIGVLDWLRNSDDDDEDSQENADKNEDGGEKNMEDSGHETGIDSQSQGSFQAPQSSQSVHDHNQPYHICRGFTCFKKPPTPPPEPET

As to `CC(=O)N1c2ccc(S(=O)(=O)NCC3CCC(C(=O)N4CC(C)CC(C)C4)CC3)cc2CC1C` (centres undefined), the concentration for a half-maximal effect (EC50) in assay [1], in [2] and in assay [3] was > 120 µM (not active) each time. As to `Cc1c(C(=O)OC(C)C)sc(NC(=O)c2cccnc2)c1C#N`, in assay [4], the IC50 is 1.82 µM (active). On to `COc1ccc(CCNC(=O)c2ccc3c(c2)SC2=NS(=O)(=O)CCN23)cc1`, for which the EC50 in [5] and in assay [6] was > 112 µM (not active) in each case. As to `CCCc1cc(NCC2CCCO2)n2c(nc3ccccc32)c1C#N` (centres undefined), the IC50 in assay [4] is 8.03 µM (active). Turning to `CC1CCCCC1NC(=O)Cn1nnc2ccccc2c1=O` (centres undefined), the EC50 in assay [1], in assay [2] and in [3] was > 120 µM (not active) each time. As to `Nc1nc2ncc(C(=O)c3cc(Cl)cc(Cl)c3O)cc2s1`, the IC50 in assay [7] is > 100 µM (active). `CCn1nc([N+](=O)[O-])c(C(C#N)c2nc3ccccc3n2C)c(Cl)c1=O` (centres undefined): the IC50 in [7] is > 100 µM (active).

`CCc1ccc(C(=O)NC(=S)Nc2ccc(N3CCOCC3)cc2)cc1`: the IC50 in assay [8] and in assay [9] was > 66 µM (inactive) each time. As to `CCc1ccc(C(=O)COC(=O)CNC(=O)c2ccco2)cc1`, the EC50 in [5] and in assay [6] was > 112 µM (not active) throughout. Consider `COc1ccc(SC[C@H](C)CN2CC[C@H](C(C)(C)C)CCC2=O)cc1`, for which the IC50 in [8] and in assay [9] was > 66 µM (inactive) in each case. Turning to `COc1c(S(=O)(=O)NCCCN2CCOCC2)ccc(Cl)c1Cl`, the IC50 in [8] and in assay [9] was > 66 µM (inactive) in each case. `O=C(CCCn1nnc2ccccc2c1=O)N[C@H](C(=O)O)c1ccccc1`: the EC50 in assay [5] and in assay [6] was > 112 µM (not active) in each case. For `O=C(O)C1=CC[C@@H](c2ccc(Cl)cc2)N(S(=O)(=O)c2ccc(Cl)cc2)[C@H]1c1ccc(F)cc1`, the IC50 in [4] was 13.2 µM (active).

For `COc1ccc(CNC(=O)c2cc(S(=O)(=O)N3CCCC3)cn2C)cc1`, the EC50 in [5] and in assay [6] was > 112 µM (not active) throughout. On to `COc1ccc(NC(=O)c2cc([N+](=O)[O-])ccc2NC(=O)CNCc2ccccn2)c(OC)c1`, for which the IC50 in assay [10] is 4.45 µM (active).

`CCN1CCSc2ccc(C(=O)NCc3ccccc3C)cc21`: the EC50 in assay [5] and in assay [6] was > 112 µM (not active) throughout. Take `COC(=O)C(O)(c1cn(C)c2ccccc12)C(F)(F)F` (centres undefined): the EC50 in assay [5] and in assay [6] was > 112 µM (not active) each time. On to `c1ccc(CNc2nc3ccccc3n3cnnc23)cc1`, for which the EC50 in assay [1] was > 120 µM (not active); in [2], > 120 µM (not active); in [3], 22.2 µM (active). Regarding `O=C(O)CN1C(=O)/C(=C\c2cc(Br)ccc2OCc2ccccc2F)SC1=S`, the IC50 in assay [7] is 33.1 µM (active). Consider `CC(C)c1ccccc1NC(=O)COC(=O)CCN1C(=O)/C(=C\C=C\c2ccccc2)SC1=S`, for which the EC50 in [1] was 1.54 µM (active); in assay [2], 27.8 µM (active); in assay [3] it was 7.14 µM (active). As for `CCCCN1C2=NCCCN2c2cc(C)c(C)cc21`, the figures for the concentration at half-maximal activity (AC50) in assay [11] and in assay [12] were 0.803 µM (active) and 4.56 µM (active), respectively. In the case of `O=C1NC(=O)C(=Cc2coc3ccccc3c2=O)C(=O)N1`, the values for the IC50 in assay [4] and in [7] were 15.1 µM (active) and > 100 µM (active), respectively.

Regarding `COC(=O)c1ccc2c(=O)n(NC(=O)C(c3ccccc3)c3ccccc3)c(=S)[nH]c2c1`, the IC50 in [8] and in [9] was > 66 µM (inactive) each time. For the compound `CC(C)(C)C(=O)/C(=C\c1ccc([N+](=O)[O-])cc1)n1cncn1`, the half-maximal effective concentration (EC50) in [5] was > 112 µM (not active); in assay [6], 5.77 µM (active); in assay [13], 1.58 µM (active); in [14], 1.29 µM (active). Consider `O=C(Nc1ccccc1)c1cccc(S(=O)(=O)NC2CCCC2)c1`, for which, in assay [4], the IC50 is 13.2 µM (active).

Take `CCCCCCCCN1[C@@H](CC(=O)O)c2ccc(C(F)(F)F)cc2S1(=O)=O`: the IC50 in [4] is 18.2 µM (active). On to `CCOC(=O)c1c(/N=C/c2cccc([N+](=O)[O-])c2O)sc(C)c1C`, for which the IC50 is 77.1 µM (active) in assay [7] and 36.1 µM (inactive) in assay [9]. In the case of `Fc1c(F)c(F)c(/C=N/NC(=S)Nc2cccnc2)c(F)c1F`, the IC50 in [8] and in assay [9] was > 66 µM (inactive) throughout. Turning to `O=C(C[C@@H]1CC[C@H](NC(=O)c2cccc(F)c2)[C@H](CO)O1)NCc1ccc(Oc2ccccc2)cc1`, the AC50 is 28.5 µM (active) in [15], 27 µM (active) in [16] and 15.2 µM (active) in assay [17]. For `COc1ccc(S(=O)(=O)N(C)C[C@@H]2Oc3ccc(NC(=O)Cn4cnnn4)cc3CC(=O)N([C@H](C)CO)C[C@@H]2C)cc1` the same measures were 3.38 µM (active), 2.33 µM (active) and 3.68 µM (active).

Take `Cc1ccc(S(=O)(=O)Nc2ccc3c(c2)CC(=O)N([C@H](C)CO)C[C@H](C)[C@H](CN(C)S(=O)(=O)c2ccc(C)cc2)O3)cc1`: the AC50 in [15] was 1.19 µM (active); in assay [17] it was 4.36 µM (active). `Cc1c(NC(=S)N/N=C/c2ccc([N+](=O)[O-])cc2O)c(=O)n(-c2ccccc2)n1C`: the IC50 in assay [10] was 5.14 µM (active). With `Oc1ccc(/C=N/NC(=S)NCC2CCCO2)cc1` (centres undefined), the IC50 was 5.89 µM (active) in [18] and 30.8 µM (active) in assay [19]. Take `CN(C)c1ccc2c(c1)[C@H]1C[C@H](CC(=O)NCc3ccc(Oc4ccccc4)cc3)O[C@H](CO)[C@H]1O2`: the AC50 in assay [20] was 10.5 µM (active).

As to `COc1ccc2c3c([nH]c2c1)[C@H](CO)N(Cc1ccccc1OC)CC31CCN(S(=O)(=O)c2ccccc2)CC1`, the AC50 in assay [20] is 6.43 µM (active). On the same count and under the same terms, next, `CCCNC(=O)Nc1ccc2c(c1)OC[C@H](C)N(Cc1ccc(-c3ccccn3)cc1)C[C@H](C)[C@H](OC)CN(C)C2=O`: 5.09 µM (active); `O=C(Nc1ccc(F)cc1)N1CCCCN2[C@H](C1)[C@H](c1ccc(C#Cc3ccccc3)cc1)[C@@H]2CO`: 5.46 µM (active); `CO[C@H]1CN(C)C(=O)c2cc(NC(=O)Cc3ccccc3)ccc2OC[C@H](C)N(C(=O)c2ccccc2F)C[C@H]1C`: 4.94 µM (active).
